From ChEMBL document CHEMBL1201862, “PubChem BioAssay data set” (2004)
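Grown in 96-well plates, cells were treated for 48 hours with each compound at five concentrations. Insufficient inhibition: endpoint recorded as highest concentration tested. GI50: concentration for 50% inhibition of growth.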 Active and inactive are the calls of the source. Rule as the data show it: active = GI50 up to about 1.1 µM and inactive = higher.

Tests used:
Assay in all cases: inhibition of tumour cell growth, NCI panel, 48 h
[1] = test system: A498
[2] = test system: HCT-116
[3] = test system: HCT-15
[4] = test system: HL-60
[5] = test system: HOP-92
[6] = test system: HT-29
[7] = test system: K562
[8] = test system: LOX IMVI
[9] = test system: M14
[10] = test system: MOLT-4
[11] = test system: NCI-H23
[12] = test system: SF-268
[13] = test system: SK-OV-3
[14] = test system: SR
[15] = test system: SN12C
[16] = test system: SNB-19
[17] = test system: SNB-75

Structure (SMILES)	GI50 [1]	GI50 [2]	GI50 [3] [µM]	GI50 [4]	GI50 [5]	GI50 [6]	GI50 [7]	GI50 [8]	GI50 [9]	GI50 [10]	GI50 [11]	GI50 [12]	GI50 [13]	GI50 [14]	GI50 [15]	GI50 [16]	GI50 [17]
COc1ccc(C(c2ccccc2)(c2ccc(OC)cc2)N2C(=O)NC3C(CCCCC(=O)NCCCCCCOP(OCCC#N)N(C(C)C)C(C)C)SCC32)cc1 (stereo unspecified)	17.2 µM (inactive)	12 µM (inactive)	18	12.1 µM (inactive)	19.5 µM (inactive)	14.6 µM (inactive)	7.62 µM (inactive)	11.8 µM (inactive)	18.4 µM (inactive)	7.57 µM (inactive)	17 µM (inactive)	15.2 µM (inactive)	> 10 µM (inactive)	8.07 µM (inactive)			
COc1ccc(Sc2ccccc2[N+](=O)[O-])cc1	50.7 µM (inactive)	7.64 µM (inactive)	5.86	3.78 µM (inactive)	18.7 µM (inactive)	4.62 µM (inactive)	3.32 µM (inactive)	12.9 µM (inactive)	4.04 µM (inactive)	16.1 µM (inactive)	31.2 µM (inactive)	72.8 µM (inactive)	39.1 µM (inactive)	17.1 µM (inactive)	21.2 µM (inactive)	> 100 µM (inactive)	3.67 µM (inactive)
COc1cc(OC)c2c(O)cc(CC(C)O)cc2c1 (stereo unspecified)	> 100 µM (inactive)	> 100 µM (inactive)	> 100	78.9 µM (inactive)	> 100 µM (inactive)	92.5 µM (inactive)	> 100 µM (inactive)	> 100 µM (inactive)	> 100 µM (inactive)	> 100 µM (inactive)	> 100 µM (inactive)	> 100 µM (inactive)	> 100 µM (inactive)	> 100 µM (inactive)	> 100 µM (inactive)	> 100 µM (inactive)	> 100 µM (inactive)
COC(=O)C(=O)C(C(=O)C(=O)Nc1ccc([N+](=O)[O-])cc1[N+](=O)[O-])c1nc2ccc([N+](=O)[O-])cc2nc1O (stereo unspecified)	76.9 µM (inactive)	> 100 µM (inactive)	> 100	> 100 µM (inactive)	> 100 µM (inactive)	> 100 µM (inactive)	> 100 µM (inactive)	> 100 µM (inactive)	> 100 µM (inactive)	> 100 µM (inactive)	> 100 µM (inactive)	> 100 µM (inactive)	> 100 µM (inactive)	43 µM (inactive)	> 100 µM (inactive)	> 100 µM (inactive)	14.6 µM (inactive)
COc1cccc2c1C(=O)c1c(O)c3c(c(O)c1C2=O)C[C@@](O)(C(=O)CO)CC3OC1CC(NCCCC(OC(C)=O)OC(C)=O)C(O)C(C)O1 (stereo partly specified)	0.0019 µM (active)		0.00225	0.00212 µM (active)	0.00277 µM (active)	0.000711 µM (active)	0.000512 µM (active)	0.000233 µM (active)	0.000867 µM (active)	0.00224 µM (active)	0.00182 µM (active)	0.00305 µM (active)	0.00501 µM (active)	< 0.0001 µM (active)	0.00152 µM (active)	0.00246 µM (active)	0.0015 µM (active)
C=CCN1C(=O)NC(=O)/C(=C/c2c3ccccc3cc3ccccc23)C1=O		17.1 µM (inactive)			20.4 µM (inactive)	20.7 µM (inactive)	20.8 µM (inactive)	27.6 µM (inactive)	16.2 µM (inactive)	17.9 µM (inactive)	> 10 µM (inactive)	24.5 µM (inactive)	29.9 µM (inactive)	23.9 µM (inactive)		21.8 µM (inactive)	21.3 µM (inactive)
O=C1CCCC/C1=C\c1ccc(Cl)c(Cl)c1	58.5 µM (inactive)	17.1 µM (inactive)	19.1	19 µM (inactive)		22.3 µM (inactive)	18.9 µM (inactive)	18 µM (inactive)	19.9 µM (inactive)	18.1 µM (inactive)	23.3 µM (inactive)	23.3 µM (inactive)	45.8 µM (inactive)		16.6 µM (inactive)	25.8 µM (inactive)	16.3 µM (inactive)
C/C(=N\NC(=O)C[N+](C)(C)C)c1sc(-c2cccnc2)nc1C		> 100 µM (inactive)		> 100 µM (inactive)	24.9 µM (inactive)	> 100 µM (inactive)	> 100 µM (inactive)	> 100 µM (inactive)	> 100 µM (inactive)	> 100 µM (inactive)	> 100 µM (inactive)	> 100 µM (inactive)	> 100 µM (inactive)				> 100 µM (inactive)
NC(=O)c1ncn(Cc2ccccc2)c1CNC(N)=S			> 100	> 100 µM (inactive)		> 100 µM (inactive)	> 100 µM (inactive)	> 100 µM (inactive)	> 100 µM (inactive)	> 100 µM (inactive)	> 100 µM (inactive)	> 100 µM (inactive)	> 100 µM (inactive)	> 100 µM (inactive)	> 100 µM (inactive)	> 100 µM (inactive)	91.4 µM (inactive)
CN(C(=O)c1ccco1)C(=S)N1CCN(c2ccccn2)CC1		> 100 µM (inactive)	> 100	> 100 µM (inactive)	> 100 µM (inactive)	> 100 µM (inactive)	> 100 µM (inactive)	> 100 µM (inactive)	> 100 µM (inactive)	> 100 µM (inactive)	> 100 µM (inactive)	> 100 µM (inactive)	> 100 µM (inactive)		> 100 µM (inactive)	> 100 µM (inactive)	> 100 µM (inactive)
CC1=C2N3C[C@@H](n4c(=O)n(C)c(=O)n43)C23CCC1n1c(=O)n(C)c(=O)n13	> 100 µM (inactive)		24.7	> 100 µM (inactive)		> 100 µM (inactive)	61 µM (inactive)	52.8 µM (inactive)	> 100 µM (inactive)	> 100 µM (inactive)	> 100 µM (inactive)	> 100 µM (inactive)			> 100 µM (inactive)	> 100 µM (inactive)	> 100 µM (inactive)
N=C(NC(=N)Nc1ccc(S(=O)(=O)Nc2cnc3ccccc3n2)cc1)Nc1ccc(Br)cc1	> 100 µM (inactive)		> 100		> 100 µM (inactive)	> 100 µM (inactive)	> 100 µM (inactive)	> 100 µM (inactive)	> 100 µM (inactive)	> 100 µM (inactive)	> 100 µM (inactive)	> 100 µM (inactive)	> 100 µM (inactive)	> 100 µM (inactive)	> 100 µM (inactive)	> 100 µM (inactive)	40.6 µM (inactive)
COc1cccc2c1C(=O)c1c(O)c3c(c(O)c1C2=O)C[C@](O)(C(=O)CO)CC3OC1CC(N)C(OC2CCCCO2)C(C)O1 (stereo partly specified)	< 0.0411 µM (active)	0.0659 µM (active)	0.47	< 0.01 µM (active)	0.239 µM (active)	0.229 µM (active)	0.188 µM (active)	0.232 µM (active)		< 0.01 µM (active)	0.051 µM (active)	0.293 µM (active)	0.531 µM (active)		0.148 µM (active)	0.0948 µM (active)	0.243 µM (active)
CN1CCCS/C1=C1/SC(=S)N(c2ccccc2)C1=O	> 100 µM (inactive)	> 100 µM (inactive)	> 100	> 100 µM (inactive)	> 100 µM (inactive)	> 100 µM (inactive)	> 100 µM (inactive)	> 100 µM (inactive)	> 100 µM (inactive)	> 100 µM (inactive)	> 100 µM (inactive)	> 100 µM (inactive)	> 100 µM (inactive)	> 100 µM (inactive)	> 100 µM (inactive)	> 100 µM (inactive)	> 100 µM (inactive)
O=C(c1ccccc1)c1c(CC(O)c2ccncc2)n(C(=O)c2ccccc2)c2ccccc12 (stereo unspecified)		15.6 µM (inactive)	17.4	18.2 µM (inactive)	15 µM (inactive)	17.3 µM (inactive)	> 10 µM (inactive)		16.9 µM (inactive)	18.2 µM (inactive)	16 µM (inactive)	20.7 µM (inactive)		16.6 µM (inactive)		21.8 µM (inactive)	7.83 µM (inactive)
O=C(CC(=O)N1N=C(c2ccccc2)C(/N=N/c2ccccc2Cl)C1=O)Nc1ccccc1Cl (stereo unspecified)	> 10 µM (inactive)	25.9 µM (inactive)	40.1	13 µM (inactive)		19.9 µM (inactive)	31.1 µM (inactive)	31.3 µM (inactive)	37.9 µM (inactive)	28.6 µM (inactive)	39.8 µM (inactive)	31.5 µM (inactive)	28.6 µM (inactive)	19.3 µM (inactive)	58.5 µM (inactive)	40.4 µM (inactive)	21.1 µM (inactive)
CN1Cc2ccccc2C2(COc3ccccc3C2=O)C1 (stereo unspecified)		> 100 µM (inactive)	> 100	48.9 µM (inactive)	20 µM (inactive)	48 µM (inactive)	75.2 µM (inactive)	> 100 µM (inactive)	> 100 µM (inactive)	40.8 µM (inactive)	> 100 µM (inactive)	> 100 µM (inactive)	> 100 µM (inactive)	31.8 µM (inactive)	> 100 µM (inactive)	> 100 µM (inactive)	> 100 µM (inactive)
CC1=C(Cl)C=CP(=O)(Oc2ccccc2)C1 (stereo unspecified)		30.8 µM (inactive)	74.3	> 10 µM (inactive)	> 100 µM (inactive)		> 10 µM (inactive)	33 µM (inactive)	19.1 µM (inactive)	> 10 µM (inactive)	45.7 µM (inactive)	29.1 µM (inactive)				> 100 µM (inactive)	
